Results as given in patent US7932274B2, “3-indazolyl-4-pyridylisothiazoles” (Eli Lilly and Company, priority 2008, dated 2011).

Columns and labels:
human mGluR5 = molecular target: T1, human mGluR5 (Homo sapiens, UniProt P41594); assay: Functional in vitro activity at human mGluR5 receptors (FLIPR calcium assay, antagonism of glutamate EC90 response); assay type: cell-based; settings: AV-12 cells expressing recombinant human mGluR5a and rat EAAT1, relative IC50, read-out: IC50 measured at mGluR5
T1 construct: expressed in transfected cells; host or cells: AV-12 cells (ATCC) containing the rat EAAT1 glutamate transporter
Description: Functional in Vitro Activity at Human mGluR5; and mGluR1; Receptors
The activation of G-protein coupled receptors (GPCRS) that are coupled to GTP-binding protein alpha q (Gq proteins) results in a change in intracellular calcium concentration. This functional response can be measured in a kinetic assay using calcium-sensitive dyes and a fluorescent imaging plate reader using a standard technique known as FLIPR (MDS Analytical Technologies, Sunnyvale, Calif.). Stable cell line preparation and assay techniques are adapted from Kingston, A. E., et. al. (1995) Neuropharmacology 34: 887-894. […]
For the functional assays, cells are seeded in growth medium lacking selection antibiotics at a density of 65K per well into 96-well, black/clear bottom, poly-D-lysine coated microplates and incubated for 18-20; hours prior to the experiment. […] The antagonist effects of compounds are quantified in the FLIPR instrument in 10-point dose curves by comparing the peak fluorescent responses to the agonist glutamate in the presence and absence of compound. Specifically, the compound effect is measured as maximal minus minimal peak heights in relative fluorescent units corrected for basal fluorescence as measured in the absence of glutamate. […]

[1] = tested on: stress-induced hyperthermia in rats; assay: Attenuation of stress-induced hyperthermia in rats; assay type: in vivo, rat; settings: male Fischer F-344 rats, p.o., 60 min pretreatment, T2-T1 rectal temperature
Description: Attenuation of Stress-Induced Hyperthermia in Rats
In many anxiety disorders, hyperthermia occurs as part of the pathology and is considered a symptom of the disease. Compounds which attenuate stress-induced hyperthermia in animals are believed to be useful in treating anxiety disorders in humans.
The conventional and minimally-invasive method for analyzing stress-induced hyperthermia is by measuring body temperature, and stress-induced increases in body temperature, via rectal thermometer. Male Fischer F-344; rats (Harlan, Indianapolis, Ind., USA) weighing between 275-350; g are tested. All animals are individually-housed with food and automated water available ad libitum, and maintained on a 12; h light/dark cycle (lights on at 06:00). Animals are fasted for approximately 12-18; hours before the experiment, which is conducted during the light phase. […]
After the pretreatment period, rats are taken individually to a brightly lit adjacent room where baseline body temperatures are determined by insertion of a rectal probe lubricated with mineral oil. Body temperature is assessed using a PHYSITEMP BAT-12® Microprobe Thermometer with a PHYSITEMP RET-2® rat rectal probe (Physitemp Instruments Inc., Clifton, N.J., USA). […] Ten minutes later a second body temperature measurement is recorded (T2). […]

T1 sequence (P41594 21-1180 isoform P41594-2 limits assumed): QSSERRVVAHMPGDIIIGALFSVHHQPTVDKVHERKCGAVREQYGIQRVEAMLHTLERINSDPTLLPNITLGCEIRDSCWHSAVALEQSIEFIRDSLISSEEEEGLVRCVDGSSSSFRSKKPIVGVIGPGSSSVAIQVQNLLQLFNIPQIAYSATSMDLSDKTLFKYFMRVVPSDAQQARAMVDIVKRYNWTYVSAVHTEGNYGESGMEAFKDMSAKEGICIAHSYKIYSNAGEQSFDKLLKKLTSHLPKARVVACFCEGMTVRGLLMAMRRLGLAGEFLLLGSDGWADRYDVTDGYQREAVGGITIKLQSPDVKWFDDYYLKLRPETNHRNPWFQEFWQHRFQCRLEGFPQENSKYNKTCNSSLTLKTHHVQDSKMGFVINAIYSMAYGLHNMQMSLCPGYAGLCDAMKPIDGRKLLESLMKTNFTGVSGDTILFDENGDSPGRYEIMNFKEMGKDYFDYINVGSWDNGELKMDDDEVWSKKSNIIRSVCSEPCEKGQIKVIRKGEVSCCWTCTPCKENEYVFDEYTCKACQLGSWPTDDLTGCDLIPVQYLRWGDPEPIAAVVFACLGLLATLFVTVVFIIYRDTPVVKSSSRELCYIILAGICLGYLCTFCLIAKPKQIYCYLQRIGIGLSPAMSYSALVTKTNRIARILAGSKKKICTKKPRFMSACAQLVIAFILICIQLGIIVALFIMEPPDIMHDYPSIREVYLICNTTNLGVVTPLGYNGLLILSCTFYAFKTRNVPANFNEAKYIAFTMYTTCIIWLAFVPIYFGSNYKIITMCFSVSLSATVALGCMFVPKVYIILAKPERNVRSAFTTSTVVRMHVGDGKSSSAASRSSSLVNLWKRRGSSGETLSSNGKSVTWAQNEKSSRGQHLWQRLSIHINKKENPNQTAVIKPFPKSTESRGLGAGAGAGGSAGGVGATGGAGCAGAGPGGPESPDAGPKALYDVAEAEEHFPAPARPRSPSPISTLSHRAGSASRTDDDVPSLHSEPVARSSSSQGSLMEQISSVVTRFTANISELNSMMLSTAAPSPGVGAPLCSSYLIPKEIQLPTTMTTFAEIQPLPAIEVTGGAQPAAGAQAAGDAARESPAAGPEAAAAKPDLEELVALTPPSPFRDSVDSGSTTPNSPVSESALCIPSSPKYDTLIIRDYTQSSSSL

| SMILES | IC50 (human mGluR5) [nM] | T35 dose (dose producing a 35% reduction in stress-induced hyperthermic response relative to vehicle) [1] [mg/kg] | melting point [°C] |
| --- | --- | --- | --- |
| CCc1cccc(-c2c(-c3ccc4nn(C)cc4c3)nsc2NC(=O)[C@@H]2C[C@H]2C)n1.Cl [Example 2, (1R,2R)-2-methyl-cyclopropanecarboxylic acid [4-(6-ethyl-pyridin-2-yl)-3-(2-methyl-2H-indazol-5-yl)-isothiazol-5-yl]-amide hydrochloride] | 9.5 | 3.0 | – |
| CCc1cccc(-c2c(-c3ccc4nn(C)cc4c3)nsc2NC(=O)[C@@H]2C[C@H]2C)n1 [Example 22, (1R,2R)-2-methyl-cyclopropanecarboxylic acid [4-(6-ethyl-pyridin-2-yl)-3-(2-methyl-2H-indazol-5-yl)-isothiazol-5-yl]-amide] | – | – | 159.4 |
| CC(C)c1cccc(-c2c(-c3ccc4nn(C)cc4c3)nsc2NC(=O)[C@@H]2C[C@H]2C)n1 [Example 23, (1R,2R)-2-methyl-cyclopropanecarboxylic acid [4-(6-isopropyl-pyridin-2-yl)-3-(2-methyl-2H-indazol-5-yl)-isothiazol-5-yl]-amide] | – | – | 142 to 144 |
